Like-named read-outs stand apart in the source and are kept apart here.
Assays:
[1] = Measurement of logP values by HPLC on reversed phase columns (EEC directive 79/831 Annex V.A8); format: physicochemical; conditions: for Log P: pH 2.7, 0.1% formic acid in water / acetonitrile; for chromatographic logP: reversed-phase HPLC column
Experimental: Measurement of logP values was performed according EEC directive 79/831 Annex V.A8 by HPLC (High Performance Liquid Chromatography) on reversed phase columns with the following methods: […]

Phytophthora infestans = format: in vivo; conditions: 500 ppm of active ingredient; tomato, preventive; evaluated 7 days after inoculation
Plasmopara viticola = assay: Plasmopara test (grapevines) / preventive; format: in vivo; conditions: 100 ppm of active ingredient, evaluated 6 days after inoculation
Experimental: • Plasmopara Test (Grapevines)/Preventive
Solvent: 24.5 parts by weight of acetone • 24.5 parts by weight of dimethylacetamide
Emulsifier: 1 part by weight of alkylaryl polyglycol ether
To produce a suitable preparation of active compound, 1 part by weight of active compound is mixed with the stated amounts of solvent and emulsifier, and the concentrate is diluted with water to the desired concentration.
To test for preventive activity, young plants are sprayed with the preparation of active compound at the stated rate of application. After the spray coating has dried on, the plants are inoculated with an aqueous spore suspension of Plasmopara viticola and then remain for 1 day in an incubation cabinet at approximately 20° C. and a relative atmospheric humidity of 100%. The plant is subsequently placed for 4 days in a greenhouse at approximately 21° C. and a relative atmospheric humidity of approximately 90%. The plants are then misted and placed for 1 day in an incubation cabinet.
The test is evaluated 6 days after the inoculation. 0% means an efficacy which corresponds to that of the untreated control, while an efficacy of 100% means that no disease is observed.

Row | SMILES | efficacy (Phytophthora infestans) | further results
1 | Cc1snnc1C(=NOCc1csc(NC(=O)C2CC(=O)c3cc(F)ccc3O2)n1)c1ccccc1 (mixture of isomers) [Example 7] | 98% | Log P ([1]; HPLC): 3.72
2 | Cc1snnc1C(=NOCc1cccc(NC(=O)C2COc3ccccc3O2)n1)c1ccccc1 (mixture of isomers) [Example 10] | 95% | efficacy (Plasmopara viticola): 98%
3 | Cc1snnc1C(=NOCc1cccc(NC(=O)C2CC(=O)c3cc(F)ccc3O2)n1)c1ccccc1 (mixture of isomers) [Example 16] | 95% | 
4 | Cc1snnc1C(=NOCc1csc(NC(=O)C2CCc3ccccc3O2)n1)c1ccccc1 (racemic) [Example 2] | 100% | 
5 | Cc1snnc1C(=NOCc1csc(NC(=O)C2Cc3ccccc3O2)n1)c1ccccc1 (racemic) [Example 3] | 100% | 
6 | Cc1cccc2c1OC(C(=O)Nc1nc(CON=C(c3ccccc3)c3nnsc3C)cs1)CO2 (racemic) [Example 5] | 100% | 
7 | Cc1snnc1C(=NOCc1csc(NC(=O)C2COc3ccccc3O2)n1)c1ccccc1 (racemic) [Example 6] | 100% | efficacy (Plasmopara viticola): 77%
8 | Cc1cccc2c1OC(C(=O)Nc1cccc(CON=C(c3ccccc3)c3nnsc3C)n1)CO2 (racemic) [Example 12] | 95% | Log P ([1]; HPLC): 4.73
9 | Cc1snnc1C(=NOCc1cccc(NC(=O)C2COc3ccccc3O2)n1)c1ccccc1 (racemic) [Example 13] | 100% | 
10 | Cc1snnc1C(=NOCc1cccc(NC(=O)C2CCc3ccccc3O2)n1)c1ccccc1 (racemic) [Example 14] | 97% | Log P ([1]; HPLC): 4.66
11 | Cc1snnc1C(=NOCc1cccc(NC(=O)C2Cc3ccccc3O2)n1)c1ccccc1 (racemic) [Example 15] | 100% | efficacy (Plasmopara viticola): 74%
12 | Cc1snnc1C(=NOCc1csc(NC(=O)C2CN(C)c3ccccc3O2)n1)c1ccccc1 (racemic) [Example 17] | 97% | 
13 | Cc1snnc1C(=NOCc1cccc(NC(=O)C2CN(C)c3ccccc3O2)n1)c1ccccc1 (racemic) [Example 18] | 100% | Log P ([1]; HPLC): 4.56
14 | Cc1snnc1C(=NOCc1csc(NC(=O)C2COc3ccccc3O2)n1)c1ccccc1 (stereo not drawn) [Example 1, N-{4-[({[(5-methyl-1,2,3-thiadiazol-4-yl)(phenyl)methylene]amino}oxy)methyl]-1,3-thiazol-2-yl}-2,3-dihydro-1,4-benzodioxine-2-carboxamide] | 100% | chromatographic logP ([1]; pH 2.7, [I1] main isomer, HPLC, pH 2.7, 0.1% formic acid, read-out: Log P): 3.99; chromatographic logP ([1]; pH 2.7, mixture of Z and E diastereoisomers, two values, read-out: logP(HCOOH)): 3.99; efficacy (Plasmopara viticola): 94%
